Assay results published in patent publication US20030008913A1, “Derivatives of 2,2-dimethyl 3(2-fluoro vinyl) cyclopropane carboxylic acid, their preparation process and their use as pesticides” (priority 1997, published 2003).

Tested on: Blattela
Test: Knockdown-effect against Blattela in a windtunnel (comparative example)
Type: in vivo
Details: Rate 0.003% w/v in 80% OPD 120 acetone mixture
Protocol: The knockdown-effect at 30 seconds and 2 minutes of the compounds of Examples 14, 27, 43 and lmiprothrin, a commercially used pyrethroid, against Blattela was assessed.
The tests were carried out in a windtunnel. The active ingredient was diluted to 0.003% w/v in an 80% OPD 120 acetone mixture. Controls (i.e., sprayed with the carrier liquid alone) were inserted at the beginning of the test, and twice at the end.

SMILES: C#CCN1CC(=O)N(COC(=O)[C@@H]2C(C=C(C)C)C2(C)C)C1=O (mixture of isomers) [Imiprothrin]
- knockdown-effect at 30 sec. (30 sec.): 0%
- knockdown-effect at 2 min (2 min): 10%
